Data: patent US11518742B2 (priority 2020, dated 2022)

Legend:
[1] = tested on: Chinese hamster ovary (CHO)-K1 cells; test: In vitro micronucleus test (flow cytometry); format: cell-based
Excerpt: The treatment with the vehicle/negative and positive controls was concurrently performed.

[2] = Maximum tolerated dose followed by 7-day repeat-dose toxicology in rats (Study 700040); format: in vivo, rat; details: both sexes, Sprague-Dawley, rat, in vivo, inhaled or intranasal; single intranasal administration
Procedure: (§1) The study consisted of 2 parts. […] The doses used in part 1 were 15, 30, 50, 65, and 75 mg/kg. Each subsequent dose was administered following at least 24 hours from the commencement of the previous dose. There were 2 males and 2 females in each dose group.
(§2) During Phase I, assessments of mortality, clinical signs and body weights were performed. […] The necropsy consisted of an external examination, including reference to all clinically-recorded lesions, as well as a detailed internal examination.
(§3) During Phase 2, assessments of mortality, clinical signs and body weights were performed. Following dosing, all animals were euthanized and subjected to a necropsy examination on Day 8. The necropsy consisted of an external examination, including reference to all clinically-recorded lesions, as well as a detailed internal examination. Study plan specific tissues/organs were collected and retained, then trimmed and preserved promptly once the animal was euthanized but these were not further examined microscopically.

Sprague-Dawley rats = test: as above; format: in vivo, rat
Procedure: as §1, §2, §3

[3] = Summary of clinical observations in applicant-sponsored dog studies; format: in vivo; details: beagle, in vivo, other: intranasal instillation; Dog; HED 50 mg; read-out: NOAEL determined in the 14-day toxicology studies
Excerpt: (§4) Based on preliminary data from another ongoing study in dogs, it has been observed that the site of blood sampling in dogs may impact the measured plasma exposure. Samples from the jugular vein may result in higher apparent exposure levels than samples from the cephalic vein, which might be due to the local transmucosal route of administration (also reported in the scientific literature (Illum, 2003; Sohlberg, 2013)). Therefore, dose escalation criteria for the Phase 1 Single Ascending Dose study are based on assessment of clinical criteria, safety factors and exposure. A maximum dose of 14 mg has been designated.

Dog = test: as above; format: in vivo; details: Dog 1.0 mg/kg (= 33 mg HED); preliminary data, ongoing study
Excerpt: as §4

[4] = Toxicokinetics in dog MTD study (Study 62958); format: in vivo
Procedure: (§5) During Phase 2, assessments of mortality, clinical signs, body weights and food consumption were performed. […] Following the last dosing, all animals were euthanized and subjected to a necropsy examination on Day 8. The necropsy consisted of an external examination; including reference to all clinically-recorded lesions, as well as a detailed internal examination. Study plan specific tissues/organs were collected and preserved following necropsy but were not further examined microscopically.
There were no sex differences in any of the measured toxicokinetic parameters on either occasion.

[5] = Maximum tolerated dose followed by 7-day repeat-dose toxicology in dogs (Study 62958); format: in vivo, dog; details: both sexes, dog, in vivo, inhaled or intranasal; intranasal instillation
Procedure: (§6) In support of these objectives, the study consisted of 2 individual phases.
(§7) The test item was administered once by intranasal instillation to one male and female dog for up to 5 dose levels until the highest tolerable dose (MTD) was determined as described in Table 11.
as §5

dogs = test: as above; format: in vivo, dog
Procedure: as §6, §7, §5

[6] = 14-day repeat-dose intranasal toxicity study with 14-day recovery in rats (Study 700041); format: in vivo, rat; details: both sexes, Sprague Dawley, in vivo, inhaled or intranasal; 14-day intranasal, rat
Procedure: (§8) The animals were monitored for mortality, clinical signs, respiratory measurements, body weights, food consumption, and body temperature. Ophthalmoscopic examinations and respiratory function tests were performed on all animals at scheduled timepoints. Clinical pathology assessments (hematology, coagulation, clinical chemistry, and urinalysis) were evaluated at termination. […] Following dosing, the Main animals were euthanized and subjected to a complete necropsy examination on Day 15. […] TK animals were euthanized after the last blood collection and discarded without further examination. At terminal euthanasia, selected tissues/organs were weighed, and microscopic evaluations of a standard set of tissues including the nasal turbinates (4 sections) and brain (7 sections) were performed for all Main and Recovery study animals.
(§9) Following dosing, animals in the Main group were euthanized and subjected to a necropsy examination on Day 15. […] For toxicokinetics, a series of 8 blood samples (approximately 0.5 mL each) were collected from all rats in the Toxicokinetic group (3 rats/sex/timepoint) on Days 1 and 14 of the treatment period at 2, 5, 10, 15 and 30 minutes, and 1.0, 3.0 and 8 hours after treatment. For control rats (3 rats/sex) in the Toxicokinetic group only 1 sample was collected at the 15 minutes post dosing timepoint on Days 1 and 14.
(§10) Toxicity was based on the following parameters monitored: mortality/morbidity, clinical observations, body weights/gains, food consumption, ophthalmoscopy, clinical pathology (hematology, coagulation, chemistry, and urinalysis), necropsy observations, selected organ weights, and microscopic examination of a complete set of standard tissues including 4 cross levels of the nasal cavity and 7 sections of the brain.

Sprague Dawley rats = test: as above; format: in vivo, rat; details: for Thymus Mean Absolute Weight, percentage compared to the control value: males; for Clinical signs: male and female
Procedure: as §8, §9, §10

[7] = 14-day repeat-dose intranasal toxicity study with 14-day recovery in dogs (Study 62959); format: in vivo, dog; details: both sexes, Beagle, dog, in vivo, inhaled or intranasal; 14 consecutive days intranasal, 14-day recovery
Procedure: (§11) Assessments of mortality, clinical signs, olfactory reflex, body weights, food consumption, ophthalmology, and electrocardiograms were performed. In addition, clinical pathology assessments (hematology, coagulation, clinical chemistry and urinalysis) were evaluated once pretreatment and at termination. Blood samples were collected from the jugular vein of all animals on Days 1 and 14, at up to 8 time points relative to treatment, for analysis of test item concentration in plasma and the subsequent calculation of toxicokinetic parameters. Following dosing, the Main animals were euthanized and subjected to a complete necropsy examination on Day 15. […] All Main and Recovery study animals underwent complete necropsy examinations, selected tissues/organs were retained, and microscopic evaluations of a standard set of tissues were performed.

Beagle dogs = test: as above; format: in vivo, dog
Procedure: as §11

COc1ccc2[nH]cc(CCN(C)C)c2c1 [5MeODMT, 5-methoxy-N,N-dimethyltryptamine]
Chromosome-damaging potential (conclusion) [1]: no chromosome-damaging potential | Micronuclei or hypodiploid cells ([1]; all treatment regimens, absence or presence of S9): did not induce any increases in micronuclei or hypodiploid cells | Cytotoxicity or precipitation ([1]; up to the maximal dose level of 300 μg/mL): No cytotoxicity or precipitation | MTD at 14 days [2]: 75 mg/kg | Body weight gain (Sprague-Dawley rats; 75 mg/kg for 7 consecutive days): slightly suppressed for both sexes | Tolerability, 7 consecutive days (Sprague-Dawley rats; 75 mg/kg once daily intranasal): tolerated | Tolerability, single intranasal administration (Sprague-Dawley rats; dose levels up to 75 mg/kg): tolerated | Mortality and gross pathology (Sprague-Dawley rats; single dose 15, 30, 50, 65, 75 mg/kg): no mortality and gross pathology findings at any dose

COc1ccc2[nH]cc(CCN(C)C)c2c1 [BPL-5MEO, 5-methoxy-N,N-dimethyltryptamine]
NOAEL at 14 days [3]: 1.5 mg/kg | Clinical observations (Dog): Slighttremor | Accumulation over the 7-day treatment period ([4]; daily intranasal instillation): did not accumulate | Tmax ([4]; dog, plasma, inhaled or intranasal, dogs, Days 1 and 7, both sexes): 2 to 15 min | MTD [5]: 2.5 mg/kg | Mortality and bodyweights (dogs; dose escalation phase, 2 to 5 mg/kg): no BPL-5MEO-related effects on mortality or bodyweights | Duration of convulsion in the male animal (dogs; last escalating dose 3.5 mg/kg/day): 8 min | NOAEL at 14 days [6]: 5 mg/kg | Effect on reproductive tissues (Sprague Dawley rats; 14-day pivotal GLP intranasal toxicity study, rats): no evidence of an adverse effect on reproductive tissues | Respiratory rates (Sprague Dawley rats; 20 minutes post dose): Decreases in respiratory rates | Thymus Mean Absolute Weight, percentage compared to the control value (Sprague Dawley rats; Group 2 (5 mg/kg/day)): −4% | Clinical signs (Sprague Dawley rats; Group 2 (Low Dose) 5 mg/kg/day): incoordination, shaking, salivation, decreased activity, lying on cage floor and sensitive to touch | Thymus Mean Absolute Weight, percentage compared to the control value (Sprague Dawley rats; Group 3 (20 mg/kg/day)): 18% | Clinical signs (Sprague Dawley rats; Group 3 (Mid Dose) 20 mg/kg/day): incoordination, shaking (or tremor), increased or shallow respiration, mydriasis, salivation, decreased activity, partially closed eyes, lying on cage floor and sensitive to touch | Thymus Mean Absolute Weight, percentage compared to the control value (Sprague Dawley rats; Group 4 (75 mg/kg/day)): −31% | Clinical signs (Sprague Dawley rats; Group 4 (High Dose) 75 mg/kg/day): incoordination, shaking (or tremor), increased or shallow respiration, mydriasis, salivation, decreased activity, partially closed eyes, lying on cage floor and sensitive to touch | Microscopic findings, epithelium of nasal cavities 1-4 (Sprague Dawley rats; Main animals, proportional to dose, greater in males): minimal to mild changes | Reversibility of nasal microscopic findings (Sprague Dawley rats; after 14-day recovery period): incomplete but progressive ongoing reversal of epithelial degeneration | Body temperature (Sprague Dawley rats; both sexes): Slight dose dependent body temperature increases | Body weight gain (Sprague Dawley rats; both sexes, Days 1 to 14): Slight dose-dependent body weight gain suppression | Ocular effect (Sprague Dawley rats; dose levels 75 mg/kg/day for 14 days): no adverse ocular effect | Activated partial thromboplastin time (APTT) (Sprague Dawley rats; mid (20 mg/kg/day) and high (75 mg/kg/day) dose groups, both sexes): APTT were increased | Hematology (Sprague Dawley rats; mid and high dose groups, both sexes): Platelet, neutrophil, monocyte and basophil counts were slightly increased | Overall tolerability (Sprague Dawley rats; ≤75 mg/kg/day for 14 consecutive days): tolerated with no BPL-5MEO-related effects on mortality, ophthalmology, clinical chemistry, macroscopic findings and urinalysis | NOAEL at 14 days [7]: 1.5 mg/kg/day | Effect on reproductive tissues (Beagle dogs; 14-day pivotal GLP intranasal toxicity study, dogs): no evidence of an adverse effect on reproductive tissues | Triglyceride (mmol/L), Mean ± SD Day 14 (Beagle dogs; Group 2, 0.4 mg/kg/day, Females): 0.46 ± 0.61 mmol/L | Triglyceride (mmol/L), Mean ± SD Day 14 (Beagle dogs; Group 2, 0.4 mg/kg/day, Males): 0.40 ± 0.11 mmol/L | Triglyceride (mmol/L), Mean ± SD Day 14 (Beagle dogs; Group 3, 0.8 mg/kg/day, Females): 0.47 ± 0.22 mmol/L | Triglyceride (mmol/L), Mean ± SD Day 14 (Beagle dogs; Group 3, 0.8 mg/kg/day, Males): 0.44 ± 0.07 mmol/L | Time to resolution of clinical signs (Beagle dogs; all treated groups): ≤ 90 min | Transient clinical observations (Beagle dogs; animals in all treated groups): incoordination, vocalization, mydriasis, decreased or increased activity, increased respiration, gnawing cage wire, excessive licking of nose or lips and circling
